Measured values: patent US10077261B2, “Imidazolin-5-one derivative useful as FASN inhibitors for the treatment of cancer” (Janssen Pharmaceutica NV, priority 2012, dated 2018)

Legend:
[1] = target: T1, hFASN enzyme (full length) (Homo sapiens, UniProt P49327); assay: Fatty Acid Synthase (FASN) inhibition scintillation proximity assay; type: biochemical; conditions: for inhibition at 10 µM: read-out: Human FASN % inhibition @ 10 μM, 10 μM test compound; for IC50: read-out: Human FASN pIC50 (converted)
T1 construct: 10 μL hFASN enzyme (full length, 300 ng, purified in house); made in house
T1 sequence (P49327 whole entry): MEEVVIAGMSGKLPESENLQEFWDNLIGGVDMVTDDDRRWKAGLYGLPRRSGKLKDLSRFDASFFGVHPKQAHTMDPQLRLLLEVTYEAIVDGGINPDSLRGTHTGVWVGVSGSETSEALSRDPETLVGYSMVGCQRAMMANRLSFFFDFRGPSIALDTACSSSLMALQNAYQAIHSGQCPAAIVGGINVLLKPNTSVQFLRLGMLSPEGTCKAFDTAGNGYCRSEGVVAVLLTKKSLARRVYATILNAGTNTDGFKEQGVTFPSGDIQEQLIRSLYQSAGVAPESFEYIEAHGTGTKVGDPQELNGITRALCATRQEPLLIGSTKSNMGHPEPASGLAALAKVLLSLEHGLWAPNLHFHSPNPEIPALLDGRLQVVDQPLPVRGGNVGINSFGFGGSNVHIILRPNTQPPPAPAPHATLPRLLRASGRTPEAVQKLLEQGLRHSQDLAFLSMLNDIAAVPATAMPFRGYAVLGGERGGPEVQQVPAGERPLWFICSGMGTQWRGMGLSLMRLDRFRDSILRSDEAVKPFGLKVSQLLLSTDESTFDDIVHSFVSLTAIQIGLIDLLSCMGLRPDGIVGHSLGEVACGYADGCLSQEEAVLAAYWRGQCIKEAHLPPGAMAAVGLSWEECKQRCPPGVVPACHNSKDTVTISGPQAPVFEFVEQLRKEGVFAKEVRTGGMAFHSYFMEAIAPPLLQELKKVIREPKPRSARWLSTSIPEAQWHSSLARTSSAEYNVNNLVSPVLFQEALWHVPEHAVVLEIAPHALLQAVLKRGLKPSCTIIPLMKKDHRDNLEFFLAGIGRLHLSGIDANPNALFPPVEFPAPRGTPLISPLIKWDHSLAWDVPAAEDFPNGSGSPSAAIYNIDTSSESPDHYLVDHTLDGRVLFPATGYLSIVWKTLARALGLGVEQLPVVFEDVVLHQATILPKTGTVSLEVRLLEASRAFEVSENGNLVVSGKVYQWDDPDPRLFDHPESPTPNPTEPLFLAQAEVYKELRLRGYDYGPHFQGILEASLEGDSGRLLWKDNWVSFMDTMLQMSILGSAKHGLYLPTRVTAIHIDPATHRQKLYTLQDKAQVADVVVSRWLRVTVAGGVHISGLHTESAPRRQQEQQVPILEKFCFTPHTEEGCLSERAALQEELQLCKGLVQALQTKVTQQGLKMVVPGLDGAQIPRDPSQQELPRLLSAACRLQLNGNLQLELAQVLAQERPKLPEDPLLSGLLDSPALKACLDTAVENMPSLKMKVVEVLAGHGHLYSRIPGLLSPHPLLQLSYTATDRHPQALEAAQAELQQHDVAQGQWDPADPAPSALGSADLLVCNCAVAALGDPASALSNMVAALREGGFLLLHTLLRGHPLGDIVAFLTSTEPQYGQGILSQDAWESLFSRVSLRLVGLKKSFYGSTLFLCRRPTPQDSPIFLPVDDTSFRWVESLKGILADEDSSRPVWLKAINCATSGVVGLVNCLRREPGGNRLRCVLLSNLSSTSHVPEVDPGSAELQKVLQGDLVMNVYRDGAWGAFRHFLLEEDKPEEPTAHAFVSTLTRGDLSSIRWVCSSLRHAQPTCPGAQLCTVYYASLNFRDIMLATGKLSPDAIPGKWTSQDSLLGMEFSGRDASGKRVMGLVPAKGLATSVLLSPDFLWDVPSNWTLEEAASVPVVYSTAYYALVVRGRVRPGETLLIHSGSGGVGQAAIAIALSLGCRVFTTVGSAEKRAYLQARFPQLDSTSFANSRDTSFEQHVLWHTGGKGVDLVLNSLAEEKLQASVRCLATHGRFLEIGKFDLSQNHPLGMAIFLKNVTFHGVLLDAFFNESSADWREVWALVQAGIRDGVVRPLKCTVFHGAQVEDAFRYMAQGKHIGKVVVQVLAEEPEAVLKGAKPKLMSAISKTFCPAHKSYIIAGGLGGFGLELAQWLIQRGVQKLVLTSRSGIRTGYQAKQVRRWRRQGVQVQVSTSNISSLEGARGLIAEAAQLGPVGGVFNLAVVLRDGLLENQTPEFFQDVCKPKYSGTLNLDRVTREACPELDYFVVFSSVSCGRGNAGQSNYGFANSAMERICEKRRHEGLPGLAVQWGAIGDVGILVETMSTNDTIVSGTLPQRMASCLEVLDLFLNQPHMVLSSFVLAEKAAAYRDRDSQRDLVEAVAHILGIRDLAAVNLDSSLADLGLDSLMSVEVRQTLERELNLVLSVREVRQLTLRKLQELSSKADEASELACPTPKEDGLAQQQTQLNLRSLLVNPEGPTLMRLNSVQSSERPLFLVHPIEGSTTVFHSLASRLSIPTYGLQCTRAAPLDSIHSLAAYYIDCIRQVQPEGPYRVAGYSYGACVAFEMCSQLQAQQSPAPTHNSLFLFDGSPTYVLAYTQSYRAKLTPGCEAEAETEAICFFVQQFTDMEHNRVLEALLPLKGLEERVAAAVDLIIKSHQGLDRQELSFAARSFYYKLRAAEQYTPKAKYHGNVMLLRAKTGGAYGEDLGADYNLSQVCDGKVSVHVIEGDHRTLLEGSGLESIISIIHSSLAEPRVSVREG
Summary of the method: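 Read-out relies on hydrophobic ³H-palmitate product, formed from ³H-acetyl-CoA and malonyl-CoA, binding streptavidin imaging beads, measured at 610±20 nm after at least 24 h. Full-length enzyme (300 ng) in phosphate buffer pH 7.5 with DTT; eight compound concentrations, 0.01–30 μM.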

A2780 ovarian cells [2] = assay: A2780 ovarian cell proliferation assay in lipid reduced medium, with palmitate (MTT); type: cell-based; conditions: Homo sapiens, A2780, 96 h; read-out: pIC50 A2780 Ovarian Cell, With Palmitate (converted)
Summary of the method: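 In this palmitate-supplemented format, compound dilutions (30 μM down to 0.01 μM) are added to cells in lipid-reduced serum with 25 μM palmitate, 0.2% fatty-acid-free BSA and 0.25% ethanol. After four days (96 h) MTT absorbance at 544 nm is recorded and fitted by minimum sum of squares.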

A2780 ovarian cells [3] = assay: A2780 ovarian cell proliferation assay in lipid reduced medium, without palmitate (MTT); type: cell-based; conditions: Homo sapiens, A2780, 96 h; read-out: pIC50 A2780 Ovarian Cell, Without Palmitate (converted)
[4] = test system: LNCaP-Vancouver prostate cells; assay: In vitro LNCaP Vancouver prostate cell proliferation assay in lipid reduced medium; type: cell-based; conditions: read-out: pIC50 LNCaP_Vancouver prostate cell (converted)
[5] = test system: PC-3M-Luc-C6 prostate cells; assay: In vitro PC-3M-Luc-C6 prostate cell proliferation assay in lipid reduced medium; type: cell-based; conditions: 96 h, read-out: pIC50 PC-3M-Luc-C6 prostate cell (converted)
[6] = target: Fatty Acid Synthase Keto-reductase Domain (FASN KR) (Homo sapiens, UniProt P49327); assay: Fatty Acid Synthase keto-reductase domain (FASN KR) inhibition, NADPH oxidation at 340 nm
Sequence of Fatty Acid Synthase Keto-reductase Domain (FASN KR) (P49327 whole entry, the tested form may be a part): as the sequence (P49327 whole entry) above
Procedure: After 20 minutes incubation at room temperature the plate was measured again (T2).
The decrease in absorbance was calculated as (Absorbance before incubation T1)−(Absorbance following incubation T2).
A plot of Controlmin versus test compound concentration was fitted to a 4-parameter logistic curve using a non-linear least squares regression method.

SMILES	inhibition at 10 µM [1] [%]	IC50 [1] [nM]	IC50 (A2780 ovarian cells [2]) [nM]	IC50 (A2780 ovarian cells [3]) [nM]	IC50 [4] [nM]	IC50 [5] [nM]	IC50 [6] [nM]
C=CC(=O)N1CCC2(CC1)N=C(c1ccc(-c3ccc4ccoc4c3)cc1)N(C[C@@H]1CCN(C(=O)C3CC3)C1)C2=O [compound 741, 8-Acryloyl-2-[4-(1-benzofuran-6-yl)phenyl]-3-{[(3R)-1-(cyclopropylcarbonyl)pyrrolidin-3-yl]methyl}-1,3,8-triazaspiro[4.5]dec-1-en-4-one]	102	158	> 10000	~2510	2750	~1620	537
Cc1sc2ccc(-c3ccc(C4=NC5(CCN(CCO)CC5)C(=O)N4C[C@@H]4CCN(C(=O)C5CC5)C4)cc3)cc2c1C [compound 742, 3-{[(3R)-1-(Cyclopropylcarbonyl)pyrrolidin-3-yl]methyl}-2-[4-(2,3-dimethyl-1-benzothiophen-5-yl)phenyl]-8-(2-hydroxyethyl)-1,3,8-triazaspiro[4.5]dec-1-en-4-one]	99	191	~6030	~2510	~4470	~1740	355
CS(=O)(=O)N1CCC2(CC1)N=C(c1ccc(-c3ccc4occc4c3)cc1)N(C[C@@H]1CCN(C(=O)C3CC3)C1)C2=O [compound 746, 2-[4-(1-Benzofuran-5-yl)phenyl]-3-{[(3R)-1-(cyclopropylcarbonyl)pyrrolidin-3-yl]methyl}-8-(methylsulfonyl)-1,3,8-triazaspiro[4.5]dec-1-en-4-one]	94	275	> 10000	~1860	~3890	~1660	1070
COCCN1CCC2(CC1)N=C(c1ccc(-c3ccc4[nH]ccc4c3)cc1)N(C[C@@H]1CCN(C(=O)C3CC3)C1)C2=O [compound 747, 3-{[(3R)-1-(Cyclopropylcarbonyl)pyrrolidin-3-yl]methyl}-2-[4-(1H-indol-5-yl)phenyl]-8-(2-methoxyethyl)-1,3,8-triazaspiro[4.5]dec-1-en-4-one]	96	85.1	> 10000	~74.1	631	57.5	129
COCCN1CCC2(CC1)N=C(c1ccc(-c3ccc4[nH]ncc4c3)cc1)N(C[C@@H]1CCN(C(=O)C3CC3)C1)C2=O [compound 748, 3-{[(3R)-1-(Cyclopropylcarbonyl)pyrrolidin-3-yl]methyl}-2-[4-(1H-indazxol-5-yl)phenyl]-8-(2-methoxyethyl)-1,3,8-trisazaspiro[4.5]dec-1-en-4-one]	99	355	> 10000	~224	3020	575	525
COCCN1CCC2(CC1)N=C(c1ccc(-c3ccc4c(cnn4C)c3)cc1)N(C[C@@H]1CCN(C(=O)C3CC3)C1)C2=O [compound 750, 3-{[(3R)-1-(Cyclopropylcarbonyl)pyrrolidin-3-yl]methyl}-8-(2-methoxyethyl)-2-[4-(1-methyl-1H-indazol-5-yl)phenyl]-1,3,8-triazaspiro[4.5]dec-1-en-4-one]	94	309	> 10000	676	3160	589	1150
Cn1ncc2cc(-c3ccc(C4=NC5(CCN(C(=O)C(F)(F)F)CC5)C(=O)N4C[C@@H]4CCN(C(=O)C5CC5)C4)cc3)ccc21 [compound 752, 3-{[(3R)-1-(Cyclopropylcarbonyl)pyrrolidin-3-yl]methyl}-2-[4-(1-methyl-1H-indazol-5-yl)phenyl]-8-(trifluoroacetyl)-1,3,8-triazaspiro[4.5]dec-1-en-4-one]	91	776	> 10000	1620	3980	1910	1050
CS(=O)(=O)N1CCC2(CC1)N=C(c1ccc(-c3ccc4[nH]ccc4c3)cc1)N(CC1CN(C(=O)C3CC3)C1)C2=O [compound 762, 3-{[1-(Cyclopropylcarbonyl)azetidin-3-yl]methyl}-2-[4-(1H-indol-5-yl)phenyl]-8-(methylsulfonyl)-1,3,8-triazaspiro[4.5]dec-1-en-4-one]	95	316	> 10000	~977	3890	813	759
O=C(C1CC1)N1CC(CN2C(=O)C3(CCN(C(=O)C(F)(F)F)CC3)N=C2c2ccc(-c3ccc4[nH]ccc4c3)cc2)C1 [compound 765, 3-{[1-(Cyclopropylcarbonyl)azetidin-3-yl]methyl}-2-[4-(1H-indol-5-yl)phenyl]-8-(trifluoroacetyl)-1,3,8-triazaspiro[4.5]dec-1-en-4-one]	96	363	> 10000	2190	8910	2090	832
N#Cc1ccc2cc(-c3ccc(C4=NC5(CC5)C(=O)N4CC4CN(C(=O)C5(O)CC5)C4)c(F)c3)ccc2c1 [compound 872, 6-(3-fluoro-4-(6-((1-(1-hydroxycyclopropanecarbonyl)azetidin-3-yl)methyl)-7-oxo-4,6-diazaspiro[2.4]hept-4-en-5-yl)phenyl)-2-naphthonitrile]	99	23.4	~7940	2.69	24	4.79	42.7
O=C(C1CC1)N1CC[C@@H](CN2C(=O)C3(CCCC3)N=C2c2ccc(-c3ccc4cccnc4c3)cc2F)C1 [compound 875, (R)-3-((1-(cyclopropanecarbonyl)pyrrolidin-3-yl)methyl)-2-(2-fluoro-4-(quinolin-7-yl)phenyl)-1,3-diazaspiro[4.4]non-1-en-4-one]	104	25.1	> 10000	13.5	87.1	10.5	28.8
O=C(C1CC1)N1CC[C@@H](CN2C(=O)C3(CCCC3)N=C2c2ccc(-c3ccc4sccc4c3)cc2F)C1 [compound 876]	105	30.9	> 10000	229	617	120	36.3
O=C(C1CC1)N1CC[C@@H](CN2C(=O)C3(CCCC3)N=C2c2ccc(-c3ccc4[nH]cnc4c3)cc2F)C1 [compound 877, (R)-2-(4-(1H-benzo[d]imidazol-5-yl)-21-fluorophenyl)-3-((1-(cyclopropanecarbonyl)pyrrolidin-3-yl)methyl)-1,3-diazaspiro[4.4]non-1-en-4-one]	103	33.9	> 10000	21.4	~407	45.7	74.1
O=C(C1CC1)N1CC[C@@H](CN2C(=O)C3(CCCC3)N=C2c2ccc(-c3ccc4cn[nH]c4c3)cc2F)C1 [compound 879, (R)-3-((1-(cyclopropanecarbonyl)pyrrolidin-3-yl)methyl)-2-(2-fluoro-4-(1H-indazol-6-yl)phenyl)-1,3-diazaspiro[4.4]non-1-en-4-one]	104	41.7	> 10000	25.1	380	30.9	55
Cn1ncc2cc(-c3ccc(C4=NC5(CCCC5)C(=O)N4C[C@@H]4CCN(C(=O)C5CC5)C4)c(F)c3)ccc21 [compound 880, (R)-3-((1-(cyclopropanecarbonyl)pyrrolidin-3-yl)methyl)-2-(2-fluoro-4-(1-methyl-1H-indazol-5-yl)phenyl)-1,3-diazaspiro[4.4]non-1-en-4-one]	101	79.4	> 10000	66.1	646	117	112
Cc1cc(-c2ccc3c(c2)CCO3)ccc1C1=NC2(CCCC2)C(=O)N1C[C@@H]1CCN(C(=O)C2CC2)C1 [compound 884, (R)-3-((1-(cyclopropanecarbonyl)pyrrolidin-3-yl)methyl)-2-(4-(2,3-dihydrobenzofuran-5-yl)-2-methylphenyl)-1,3-diazaspiro[4.4]non-1-en-4-one]	100	288	> 10000	~2140	3020	~1820	741
O=C(C1CC1)N1CC[C@@H](CN2C(=O)C3(CCCC3)N=C2c2ccc(-c3ccc4[nH]c(=O)[nH]c4c3)cc2F)C1 [compound 885, (R)-5-(4-(3-((1-(cyclopropanecarbonyl)pyrrolidin-3-yl)methuyl)-4-oxo-1,3-diazaspiro[4.4]non-1-en-2-yl)-3-fluorophenyl)-1H-benzo[d]imidazol-2(3H)-one]	98	309	> 10000	~2240	> 10000	~2630	490
